According to patent publication US6620792B1, “Pharmaceutical compositions containing monosialoganglioside GM1 or derivative thereof suitable for the treatment of parkinson's disease” (Fidia S.p.A., priority 1992, dated 2003):
Marks after values point to notes of the source that are not given here.

What was measured:
[1] = system: MPTP-treated squirrel monkeys; test: food grasping test in MPTP-treated squirrel monkeys; assay type: in vivo; details: GM1 30 mg/kg/day i.m., investigation end
Protocol: Tests on squirrel monkeys, which concerned simple motor functions (e.g. capability of grasping food placed in deep containers), were intended to determine the response time and evaluate limb functional use. In particular, monkeys were trained to grasp raisins from a Plexiglas platform accommodating 9.5 mm dia. wells. The time taken to start grasping and the number of raisins grasped in a 6-minute time limit were recorded. All the aforesaid tests were carried out before the first meal of the day.
Normal monkeys started response on sighting the food container.
Normal squirrel monkeys succeeded in grasping 100% food. Soon after MPTP administration, all monkeys were endangered and grasped approx. 15% food. Within the third week of treatment, the monkeys treated with GM1—compared with those treated with saline solution—grasped a higher amount of food. At the investigation end, the former grasped 100% food whereas the latter grasped only 25% food (*p<0.05).

[2] = system: MPTP-treated squirrel monkeys; test: post-mortem striatal dopamine and metabolite levels by HPLC, squirrel monkeys; assay type: in vivo; details: MPTP/GM1, average (S.D.)
Protocol: (§1) Post-mortem neurochemical examinations of striatal tissue were carried out for the determination of dopamine (DA) and relevant metabolites, e.g. homovanillic acid (HVA), and […] (DOPAC). DA and relevant metabolites striatal levels were quantified by electrochemical […] high pressure liquid chromatography (HPLC) (Schneider J. S., Brain Res., 24, 534, 1990).

[3] = system: MPTP-treated cynomolgus monkeys; test: motor behaviour rating of MPTP-treated cynomolgus monkeys; assay type: in vivo; details: GM1 15 mg/kg/day i.m.; p<0.05 vs saline solution
Protocol: In vivo experiments with GM1 were carried out on 15 (male or female) squirrel monkeys and 4 cynomolgus monkeys.
The monkeys were administered MPTP saline solution after being anaesthesized i.m. with ketamine HCl 5 mg/kg, as follows:
0.35 mg/kg/dose, i.v. (cynomolgus monkeys)
MPTP was administered every third day until complete manifestation of parkinsonian motor symptomatology was obtained, i.e. akinesia, lack of responsiveness to stimulation, inability to climb, to feed autonomously, and to groom. Thirty points min. (as will be defined in the explanation of FIG. 1) had to be obtained during the 48-60 hours following the last MPTP administration; then animals in pairs were subdivided at random into two treatment groups, i.e. treatment with GM1 or with saline solution. […]
In particular, the following functions were recorded: overall activity, ability to climb, locomotion/gait, upper and lower limb movements, detailed motor ability, bradykinesia/akinesia, dyskinesia/dystonia, carriage, tremor, balance, grooming ability, sudden immobility during movements, and ability to feed. […]
FIGS. 1 and 2 are now being considered in detail. […] Columns represent the average points (±S.D.); normal point is 0, MPTP points are the points recorded after the last MPTP injection but prior to the administration of associated GM1-saline solution. […]

[4] = system: MPTP-treated cynomolgus monkeys; test: post-mortem striatal dopamine and metabolite levels by HPLC, cynomolgus monkeys; assay type: in vivo; details: MPTP/GM1, average (S.D.)
Protocol: as §1

[5] = system: mesencephalic dopaminergic neurons; test: TOPA neurotoxicity in mesencephalic dopaminergic neuron cultures, TH immunofluorescence; assay type: cell-based, rat; details: for TH+ cells (% control): counted 24 h later, mean ± S.E.M.
Protocol: Mesencephalic neuron cultures were prepared according to Dal Toso et al. (Dal Toso et al.: “Development and survival of neurons in dissociated fetal mesencephalic serum-free cell cultures: I. Effects of cell density and of an adult mammalian striatal-derived neuronotrophic factor (SDNF)”, J. Neurosci., 8 (3) 733-745, 1988) from the mesencephalic tegmentum of 14.5-15 days' rat embryos.
Neurons (0.75×10^6) were plated on a poly-L-ornithine substrate in 12-well (25 mm dia. each) clusters.
Cultures were used between the fourth and the sixth day without changing the medium. […]
2-hour pretreatment before acute incubation with TOPA;
cotreatment only with LIGA 20 before acute incubation with TOPA;
pretreatment with/without cotreatment before (100 μM for 2 h) and/or during (100 μM for 24 h) prolonged incubation with TOPA. TOPA cytotoxicity was determined by evaluating cellular survival, and more precisely:
TH immunofluorescence (specific for tyrosine hydroxylase) in mesencephalic dopaminergic neurons, as described by Berger et al. (Berger B. et al.: “Long-term development of mesencephalic dopaminergic neurons of mouse embryos in dissociated primary cultures: morphological and histochemical characteristics”, Neurosci., 7, 193-205, 1982);
Cytotoxicity is expressed as per cent cellular survival.
The results of the two tests (in triplicate) were analysed statistically according to Duncan's test.

## monosialoganglioside [GM1]
[1]; p<0.002 vs saline solution
  response start time in food grasping test: started response almost immediately
[1]; saline solution 25%, normal 100%
  food per cent amount grasped during the test: 100%
[2]; Dorsolateral caudatum
  DA striatal level: 8.6(1.2)* ng/mg protein
  DOPAC striatal level: 3.3(0.9)* ng/mg protein
  HVA striatal level: 46.2(6.5)* ng/mg protein
[2]; Dorsolateral putamen
  DA striatal level: 4.2(0.8)* ng/mg protein
  DOPAC striatal level: 1.3(0.2)* ng/mg protein
  HVA striatal level: 45.9(6.9)* ng/mg protein
[2]; Ventromedial caudatum
  DA striatal level: 37.4(4.2)* ng/mg protein
  DOPAC striatal level: 12.7(3.6)* ng/mg protein
  HVA striatal level: 56.6(11.9)* ng/mg protein
[2]; Ventromedial putamen
  DA striatal level: 21.9(6.1)* ng/mg protein
  DOPAC striatal level: 5.9(1.6)* ng/mg protein
  HVA striatal level: 87.5(17.3)* ng/mg protein
[3]
  motor behaviour at the investigation end: almost normal behaviour
[4]; Dorsolateral caudatum
  DA striatal level: 4.4(0.6)* ng/mg protein
  DOPAC striatal level: 2.7(0.3)* ng/mg protein
  HVA striatal level: 55.9(12.0)* ng/mg protein
[4]; Dorsolateral putamen
  DA striatal level: 3.7(0.9) ng/mg protein
  DOPAC striatal level: 2.1(0.8)* ng/mg protein
  HVA striatal level: 51.9(9.4)* ng/mg protein
[4]; Ventromedial caudatum
  DA striatal level: 12.9(2.8)* ng/mg protein
  DOPAC striatal level: 6.6(0.7)* ng/mg protein
  HVA striatal level: 60.9(6.9)* ng/mg protein
[4]; Ventromedial putamen
  DA striatal level: 11.2(4.1)* ng/mg protein
  DOPAC striatal level: 7.1(3.2)* ng/mg protein
  HVA striatal level: 100.3(11.9)* ng/mg protein
[5]; 10 μM GM1 with 1 ng/ml BDNF, compared with saturation concentration (50 ng/ml) of BDNF alone
  number of neurons which survived the TOPA-induced toxic insult: not significantly different
[5]; 100 μM compound incubated with TOPA 10 μM for 24 h, average ± S.D., control 244 ± 20
  No. of TH+ cells: 187 ± 10 (b)
[5]; 200 μM GM1 2 h pretreatment, washed, then 100 μM TOPA for 45 minutes
  TH+ cells (% control): 79.1 ± 4.0 % control
[5]; 200 μM GM1 cotreatment with 100 μM TOPA for 45 minutes, no drug 5.2 ± 1.1
  TH+ cells (% control): 5.6 ± 0.7 % control
[5]; ganglioside 1-10 μM with BDNF 1 ng/ml
  effect of association with BDNF in protecting against TOPA-induced neurotoxicity: synergic effect
[5]; ganglioside alone at 1-10 μM
  neuroprotective activity alone against TOPA-induced neurotoxicity: no neuroprotective activity of their own
